Results from patent US8871735B2, “Methods and compositions for providing cardiac protection” (University of Medicine and Dentistry of New Jersey, priority 2008, dated 2014).
Entries after “also recorded” stand apart in the source; their conditions may differ. Where two headings read alike, the source gives them in different places.

Key:
H9C2 cells = assay: cAMP accumulation in H9C2 cells; format: cell-based; details: 5 μM ISO, 3 minutes, 10 μM drug
From the text: […] Fludarabine ((+)-2-Fluoro-9-(5-O-phosphono-β-D-arabinofuranosyl)-9H-purin-6-amine) and Cladribine (2-chloro-2′-deoxyadenosine) are anti-cancer drugs, Adefovir (Bis(2,2-dimethylpropanoyloxymethyl)[2-(6-amino-9H-purin-9-yl)ethoxymethyl]phosphonate) and Zidovudine are anti-HIV drugs. Zidovudine-TP is a metabolite of zidovudine which inhibits virus replication. TP; triphosphate. 3-Deazaadenosine, Formycin A (7-Amino-3-(β-D-ribofuranosyl)-1H-pyrazolo[4,3-d]pyrimidine), 2-Far (2-Fluoroadenosine), formycin A ((2S,3R,4S,5R)-2-(7-amino-2H-pyrazolo[5,4-e]pyramidin-3-yl-5-(hydroxymeth-yl)oxolane-3,4-diol), 2-FD (2-Fluoro-2′-deoxyadenosine) and 2′5′ ddAdo (2′5′-dideoxyadenosine) are experimental drugs.
(§1) Mice were anesthetized with 2.5% tribromoethanol (0.010 to 0.015 mL per gram of body weight) injected intraperitoneally, and echocardiography was performed with ultrasonography (ACUSON Sequoia C256, Siemens Medical Solutions, Malvern, Pa.). For acute injection of isoproterenol, forskolin and milrinon, a PE-10 catheter was inserted into the right jugular vein, and drugs were injected at the rate of 1 μl/s. cAMP accumulation assay in H9C2 cells, a cardiac myoblast cell line, was examined as previously described.

cardiac myocytes [1] = assay: ISO-stimulated cAMP accumulation in cultured cardiac myocytes; format: cell-based, mouse; details: 10 μM compound
cardiac myocytes [2] = assay: ISO-induced apoptosis in cultured cardiac myocytes (DNA fragmentation ELISA); format: cell-based; details: 100 μM ISO, 48 h
Method: Cultured cardiac myocytes were incubated with 100 μM ISO in the presence or absence of AC5 inhibitors at the indicated concentrations for 48 h.

AC6 = assay: Forskolin-stimulated cAMP production in heart membrane preparations from AC6Tg; format: biochemical, mouse; details: forskolin 50 μM
[3] = system: C57Bl/6 mice, chronic ISO infusion; assay: Chronic ISO infusion heart failure model; format: in vivo, mouse
From the text: (§2) ISO with or without AC5 inhibitors were chronically infused with osmotic mini-pump implanted subcutaneously at indicated doses for 1 week in c57Bl/6 mice. Mice were then subjected to echocardiography (a) and the hearts were removed and subjected to pathological examinations such as myocardial apoptosis (b) and fibrosis (c). n=4-8.
(§3) In C57Bl/6 mice, ISO with or without AC5 inhibitors or metoprolol were chronically infused with an osmotic mini-pump at the indicated doses for 1 week. Mice were then subjected to echocardiography (a) and heart tissue were subjected to a myocardial apoptosis assay (b). *, p<0.01 vs vehicle. #, p<0.05 vs vehicle. .dagger., p<0.01 vs ISO. .dagger-dbl., p<0.05 vs ISO. n=4-15. […] Comparisons between multiple groups were made using ANOVA with post-hoc tests.
Tenofovir diphosphate (PMPA-PP), zidovudine monophosphate (MP), zidovudine diphosphate (PP), zidovudine triphosphate (TP), famciclovir penciclovir and valaciclovir were purchased from Moravek. Formycin A (FMA) and Formycin B (FMB) were purchased from Berry and Associates. All other reagents were from Sigma unless specified. Long-term infusion of isoproterenol (Sigma, St. Louis, Mo.) was performed for 7 days at a dose of 60 mg/kg/d with or without AC5 inhibitors by using a miniosmotic pump (ALZET model 2001, DURECT Corp, Cupertino, Calif.). Control mice received vehicle in pumps. Pumps were removed 24 hours before biochemical and physiological studies. Experiments were performed in 3- to 5-month-old male C57Bl/6, and in AC5Tg transgenic mice. This study was approved by the Animal Care and Use Committee at New Jersey Medical School.
as §1

[4] = system: mice, chronic ISO infusion; assay: Treadmill exercise tolerance after chronic ISO; format: in vivo, mouse
Method: Treadmill exercise tolerance was performed as previously described. One week after pump implantation, pumps were removed under anesthesia. The next day after removal, mice were placed on a custom-built four-lane treadmill with an infrared detection system above the shock stimulus at a starting speed of 2 m/min. Every two minutes, the speed was increased by 4 m/min for 16 min or until the mouse could no longer run.

mice = assay: Basal cardiac function (echocardiography) under chronic drug infusion alone; format: in vivo, mouse; details: chronic infusion of drug alone (3 days to 1 week)
From the text: as §2, §3
as §1, with “described. […]” for “described.”

AC5 [5] = biological target: AC5 (Mus musculus, UniProt P84309); assay: Acute ISO, milrinone or carbachol challenge in mice chronically infused with Ara-Ade; format: in vivo
AC5 (Mus musculus, UniProt P84309), sequence (P84309 whole entry, the tested form may be a part): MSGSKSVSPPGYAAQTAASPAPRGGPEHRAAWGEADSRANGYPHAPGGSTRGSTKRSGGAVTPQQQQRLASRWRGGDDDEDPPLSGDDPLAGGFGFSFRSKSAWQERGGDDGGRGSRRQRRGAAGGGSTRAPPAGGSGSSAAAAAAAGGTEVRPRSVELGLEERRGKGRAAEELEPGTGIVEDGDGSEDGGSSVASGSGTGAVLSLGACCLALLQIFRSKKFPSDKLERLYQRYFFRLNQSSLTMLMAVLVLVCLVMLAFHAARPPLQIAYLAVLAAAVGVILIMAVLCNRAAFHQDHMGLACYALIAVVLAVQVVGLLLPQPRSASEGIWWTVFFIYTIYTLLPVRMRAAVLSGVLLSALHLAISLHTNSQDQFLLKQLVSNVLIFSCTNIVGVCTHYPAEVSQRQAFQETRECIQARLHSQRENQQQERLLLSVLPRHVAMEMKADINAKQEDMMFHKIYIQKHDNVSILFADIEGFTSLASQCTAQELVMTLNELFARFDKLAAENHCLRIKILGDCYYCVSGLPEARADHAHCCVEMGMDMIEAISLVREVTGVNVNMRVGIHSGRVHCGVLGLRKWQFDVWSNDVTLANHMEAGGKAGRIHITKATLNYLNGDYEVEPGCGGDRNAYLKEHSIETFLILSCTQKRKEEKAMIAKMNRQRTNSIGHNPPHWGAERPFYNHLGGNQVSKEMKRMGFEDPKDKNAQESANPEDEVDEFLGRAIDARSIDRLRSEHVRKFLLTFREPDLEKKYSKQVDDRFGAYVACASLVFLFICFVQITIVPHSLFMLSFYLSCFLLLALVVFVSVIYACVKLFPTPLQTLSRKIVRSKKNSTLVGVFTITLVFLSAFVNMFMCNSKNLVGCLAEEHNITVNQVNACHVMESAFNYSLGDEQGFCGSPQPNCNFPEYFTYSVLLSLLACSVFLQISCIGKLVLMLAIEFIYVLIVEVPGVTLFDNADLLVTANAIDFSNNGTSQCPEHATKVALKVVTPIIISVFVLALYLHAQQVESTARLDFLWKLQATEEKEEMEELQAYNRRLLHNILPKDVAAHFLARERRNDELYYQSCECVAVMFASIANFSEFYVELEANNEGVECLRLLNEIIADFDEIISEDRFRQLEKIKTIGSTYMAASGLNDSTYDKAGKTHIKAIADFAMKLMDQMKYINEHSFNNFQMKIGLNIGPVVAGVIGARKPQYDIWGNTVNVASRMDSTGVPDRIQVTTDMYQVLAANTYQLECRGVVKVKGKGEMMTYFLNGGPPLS

AC5 [6] = assay: as above; format: in vivo, mouse; details: 0.05 μg/kg IV ISO, AC5Tg
ERK/MEK/Bcl-2 pathway = assay: Western blot of hearts after chronic ISO infusion; format: in vivo, mouse
Method: The activities of MEK1 and ERK1/2 signaling pathway were examined by measuring the phosphorylated and total forms.
Western blotting was conducted with commercially available antibodies, except for type 5 and type 6 AC. Western blotting for type 5 and 6 AC was performed as previously described. Protein expression was quantified by densitometry.

[7] = system: C57BL/6 mice, CAO 30 min / CAR; assay: Mouse ischemia and reperfusion model; format: in vivo
Method: Mice were divided into three different groups. Group I was administered AC5 inhibitor chronically for three weeks prior to CAO for 30 minutes followed by CAR for 24 hours. Group II was administered the AC5 inhibitor by i.v. infusion for 5 minutes immediately prior to CAO for 30 minutes followed by CAR for 24 hours. Group III was administered the AC5 inhibitor by i.v. infusion for 5 minutes immediately following CAO for 30 minutes and during CAR for 24 hours. Vehicle controls were included for all three treatment groups.
3-4 month old male C57BL/6 mice purchased from Jackson Laboratory were anesthetized by an injection of 2% 2,2,2-tribromomethanol (0.66 mg/g i.p.; Aldrich Chemical, St. Louis, Mo.). The mice were then orally intubated and mechanically ventilated. The heart was accessed via a thoracotomy at the fourth intercostals space and 7-0 silk suture passed under the left anterior descending coronary artery (LAD) at the point where it emerged from under the left atrial flap. Myocardial ischemia was achieved by occluding the LAD against a 22-gauge J-shaped stainless steel probe and verified by visually noting the regional akinesis and blanching of the left ventrical. The chest was closed in layers, with the long end of the probe remaining outside the chest wall, allowing the animal to be removed from the ventilator. After 30 min. of ischemia, reperfusion was initiated by carefully pulling the probe out form the ligature and then removing it from the chest cavity. Following the surgical procedure, the mouse was allowed to recover on a warmed surface, with supplemental oxygen delivered from a nose cone. I/R were verified by three lead electrocardiograms, which were obtained preoperatively, at the end of the ischemic interval and immediately after the initiation of reperfusion. Mice fully recovered from the surgical procedure were returned to standard animal housing conditions. The mice were under either 24 hrs of reperfusion followed by sacrifice and dual staining of the heart with TTC and Alcian Blue or kept for 4 weeks to study the heart failure progression. For the long term study post ischemia and reperfusion, the animals underwent echocardiography recording at 4 days, 2 weeks and 4 weeks after reperfusion.

Water solubility = format: physicochemical
[8] = cited from earlier work
[9] = 30 min CAO, 24 hr CAR, vehicle 36%

SMILES: Nc1ncnc2c1ncn2[C@@H]1O[C@H](CO)[C@@H](O)[C@@H]1O [Ara-Ade, 9-β-D-arabinofuranosyladenine]
- inhibition of cAMP accumulation in H9C2 cells (H9C2 cells): slight inhibition
- decrease in ISO-induced cAMP production / accumulation in cultured cardiac myocytes (cardiac myocytes [1]): 20%
- ISO-induced apoptosis in cultured cardiac myocytes (cardiac myocytes [2]): completely abolished
- effective concentration in inhibiting apoptosis (cardiac myocytes [2]; FIG. 3d): 10 µM
- inhibition of cAMP production, heart membrane preparation from AC6Tg (AC6): little inhibitory effect
- ISO-induced decrease in LVEF (and FS) ([3]; ISO 60 mg/kg/d 7 days, Ara-Ade 20 and 100 mg/kg/day, 2′5′ ddAdo 20 mg/kg/day): rescued LVEF and FS reduction
- ISO-induced cardiac fibrosis ([3]; chronic ISO infusion): significantly inhibited
- ISO-induced myocardial apoptosis in vivo ([3]; chronic ISO infusion): significantly inhibited
- ISO-induced wall thickening (DESP, DPW) ([3]; chronic ISO infusion): neither Ara-Ade nor 2′5′ ddAdo inhibited
- LVW/BW and myocyte cross sectional area ([3]; chronic ISO infusion): increased
- survival rate during 1-week chronic ISO ([3]; vs vehicle): higher
- maximum velocity in the treadmill test [4]: rescued ISO-induced decrease in the maximum velocity
- basal LVEF (mice): did not change LVEF; also recorded: did not affect basal LVEF
- difference in LVEF between vehicle and Ara-Ade in WT (AC5 [5]; 0.05 μg/kg IV ISO, WT): no significant difference
- LVEF after ISO vs vehicle (AC5 [5]; Ara-Ade 20 mg/kg/day chronically infused, 0.25 μg/kg IV ISO): lower
- LVEF elevation by milrinone, vehicle vs Ara-Ade group (AC5 [5]; milrinone infusion): no significant difference
- decrease in HR by carbachol (AC5 [5]; vehicle vs Ara-Ade): greater in vehicle than Ara-Ade
- difference in LVEF between vehicle and Ara-Ade in AC5Tg (AC5 [6]): significant
- phosphorylation of Bcl-2 (ERK/MEK/Bcl-2 pathway): significantly increased
- phosphorylation of ERK1/2 and MEK (ERK/MEK/Bcl-2 pathway): increased
- arterial pressure and heart rate [7]: did not reduce arterial pressure and reflexly increase heart rate
- infarct size, drug administered before CAO or CAR [7, 9]: 21%
- infarct size, drug delivered at CAR [7, 9]: 16%
- development of heart failure after ischemia and reperfusion ([7]; i.v. infusion after CAO, during or after reperfusion): prevented development of heart failure
- water solubility (Water solubility): poorly water-soluble
- Cmax ([8]; 10 mg/kg, intravenously infusion for 30 min, read-out: Cmax in human): 4.8 µM
- Cmax ([8]; human, intravenous infusion 10 mg/kg, read-out: plasma Cmax): 4.8 µM
